{
  "source": "paper PMC7878868",
  "about": "“Mechanisms of feedback inhibition and sequential firing of active sites in plant aspartate transcarbamoylase” (Nature Communications, 2021)",
  "key": {"[1]": {"molecular_target": "T1, atATC (Arabidopsis ATC aa 82–390) WT (Arabidopsis thaliana, UniProt P49077)", "T1 construct": "2.6 kDa fusion tag (modified pET28a); made in house; host or cells: E. coli BLR(DE3)-pLysS", "T1 sequence (P49077 82-390)": "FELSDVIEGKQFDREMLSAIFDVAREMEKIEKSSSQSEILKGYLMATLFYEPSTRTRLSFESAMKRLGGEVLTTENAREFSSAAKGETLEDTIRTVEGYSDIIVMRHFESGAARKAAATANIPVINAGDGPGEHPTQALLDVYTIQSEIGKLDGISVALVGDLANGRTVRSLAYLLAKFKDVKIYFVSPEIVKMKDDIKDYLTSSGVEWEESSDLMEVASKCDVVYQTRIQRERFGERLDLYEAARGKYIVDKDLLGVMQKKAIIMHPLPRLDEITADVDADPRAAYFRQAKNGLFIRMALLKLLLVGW", "assay": "Isothermal titration calorimetry (ITC), atATC WT", "format": "binding", "settings": "site 1", "protocol": "(§1) Experiments were performed in an Auto-iTC200 calorimeter (MicroCal, Malvern-Panalytical) at 25 °C with a 0.2 ml reaction cell and 30–40 µM protein solution (in protomer units) in the cell. […] All solutions were in GF buffer and degassed and mixed in the cell by stirring at 750 rpm. Data analysis was performed with Origin 7 (OriginLab) using a general three-site cooperative and a non-cooperative binding model, restricted to one or two ligand binding sites when convenient[24],[62],[63]. Non-linear least-squares regression analysis was employed to estimate dissociation constants for the interaction of the different ligands with ATC."}, "atATC-F161A [2]": {"molecular_target": "T2, atATC-F161A (Arabidopsis thaliana, UniProt P49077, F161A)", "T2 construct": "2.6 kDa fusion tag (modified pET28a); made in house; host or cells: E. coli BLR(DE3)-pLysS", "T2 sequence (P49077 82-390 F161A)": "T1 sequence (P49077 82-390) with F80A", "assay": "Colorimetric ATC activity assay, atATC F161A", "format": "biochemical", "settings": "for Activity F161A: 10 mM Asp", "protocol": "(§2) Activity was assayed by a colorimetric method[64] adapted to a 96-well plate format. […] Reagent B is light sensitive and was stored at 4 °C in the dark. The color reagents were gently mixed and stored at 4 °C in the dark until added to the sample. Reaction tubes were closed, boiled at 95 °C for 15 min, and kept in the dark for 30 min before measuring the absorbance at 450 nm in a Tecan infinite m200 microplate reader (Tecan). […] Data analysis was done with GraphPad. […] Protein concentration in the assay was 0.3 µM (0.01 mg ml^−1) both for WT and F161A."}, "atATC-F161A [3]": {"molecular_target": "T2, atATC-F161A", "assay": "biochemical", "format": "binding", "protocol": "as §1"}, "atATC WT": {"molecular_target": "T3, atATC WT (Arabidopsis thaliana, UniProt P49077)", "T3 construct": "2.6 kDa fusion tag (modified pET28a); made in house; host or cells: E. coli BLR(DE3)-pLysS", "T3 sequence (P49077 82-390)": "T1 sequence (P49077 82-390)", "assay": "Colorimetric ATC activity assay, atATC WT", "format": "biochemical", "settings": "10 mM Asp", "protocol": "as §2"}, "Arabidopsis seedlings": {"tested_on": "Arabidopsis seedlings", "assay": "Seedling assay in liquid culture with PALA (fresh weight, root length)", "format": "in vivo, Arabidopsis thaliana", "settings": "for fresh weight compared to untreated seedlings / root length relative to untreated seedlings / root length, average: 7 days; for fresh weight compared to untreated seedlings: n = 3 (3 times 10 seedlings); for root length relative to untreated seedlings / root length, average: n = 30; for root length, average: untreated 2.68 ± 0.49 cm; for Freshweight, single replicates (10 seedlings): source data of Figure 3a; for Freshweight, average (10 seedlings): 0 mM PALA 0.1699 g", "protocol": "For DNA isolation, tissue collection and phenotypic inspection, wild-type Col-0 and transgenic Arabidopsis thaliana (L.) Heynh. plants (ecotype Columbia) were used throughout. Plants were grown in standardized soil (ED73 Einheitserde, Humuswerke Patzer) soil under long day conditions (120 μmol quanta m^−2 s^−1 in a […] regime, temperature 22 °C, humidity 60%). Prior to germination, seeds were incubated for 24 h in the dark at 4 °C for imbibition. […] The liquid cultures were maintained on a shaker at 100 rpm under the same light and temperature conditions as soil-grown plants. Leaf extract of wild-type and mutants was prepared by homogenizing leaf material in extraction buffer (50 mM HEPES-KOH pH 7.2, 5 mM MgCl2, 2 mM phenylmethylsulfonyl fluoride (PMSF) on ice. The homogenous extract was centrifuged at 20,000g for 10 min at 4 °C. The supernatant was collected and stored on ice until use."}, "plant ATCs": {"tested_on": "plant ATCs", "parameters": "method as in PMID 14479231, doi:10.1093/jxb/40.10.1121", "settings": "cited from earlier work"}},
  "note": "Residue numbers refer to the chain shown, from its start. Values joined by “and” are separate entries in the source; they are usually repeats but may differ in a detail not shown here. Equal entries are not always repeated.",
  "data": [
    {"smiles": "O=C(O)C[C@H](NC(=O)CP(=O)(O)O)C(=O)O", "note": "[PALA, N-(phosphonacetyl)-L-aspartate]", "values": [
      {"measurement": "-TΔS Site 1", "setting": "[1]; ITC", "value": -90.4, "unit": "kJ/mol"},
      {"measurement": "ΔG Site 1", "setting": "[1]; ITC", "value": -35.6, "unit": "kJ/mol"},
      {"measurement": "ΔH Site 1", "setting": "[1]; ITC", "value": 54.8, "unit": "kJ/mol"},
      {"measurement": "Kd", "setting": "[1]; KD Site 1, ITC, 25 °C", "value": "0.59 µM and 0.6 µM"},
      {"measurement": "Activity F161A", "setting": "atATC-F161A [2]; 0.01 mM PALA, [CP] 0.15 mM", "value": "4.41 nmol / min μg and 6.29 nmol / min μg and 5.34 nmol / min μg"},
      {"measurement": "Activity F161A", "setting": "atATC-F161A [2]; 0.01 mM PALA, [CP] 0.31 mM", "value": "5.13 nmol / min μg and 6.44 nmol / min μg and 9.47 nmol / min μg"},
      {"measurement": "Activity F161A", "setting": "atATC-F161A [2]; 0.01 mM PALA, [CP] 0.63 mM", "value": "25.34 nmol / min μg and 31.98 nmol / min μg and 21.75 nmol / min μg"},
      {"measurement": "Activity F161A", "setting": "atATC-F161A [2]; 0.01 mM PALA, [CP] 1.25 mM", "value": "39.80 nmol / min μg and 37.97 nmol / min μg and 40.98 nmol / min μg"},
      {"measurement": "Activity F161A", "setting": "atATC-F161A [2]; 0.01 mM PALA, [CP] 2.50 mM", "value": "38.56 nmol / min μg and 36.28 nmol / min μg and 37.57 nmol / min μg"},
      {"measurement": "Activity F161A", "setting": "atATC-F161A [2]; 0.1 mM PALA, [CP] 1.25 mM", "value": "11.15 nmol / min μg and 10.75 nmol / min μg and 7.03 nmol / min μg"},
      {"measurement": "Activity F161A", "setting": "atATC-F161A [2]; 0.1 mM PALA, [CP] 2.50 mM", "value": "5.52 nmol / min μg and 9.09 nmol / min μg and 9.11 nmol / min μg"},
      {"measurement": "sensitivity of enzyme activity to PALA compared to WT", "setting": "atATC-F161A [2]; F161A", "value": "more sensitive"},
      {"measurement": "Kd", "setting": "atATC-F161A [3]", "value": 0.12, "unit": "µM"},
      {"measurement": "N, number of binding sites per protein trimer according to the ligand binding model", "setting": "atATC-F161A [3]; ITC, F161A", "value": 1},
      {"measurement": "fold higher affinity of F161A than WT", "setting": "atATC-F161A [3]; ITC, F161A versus WT", "value": 5, "unit": "fold"},
      {"measurement": "-TΔS Site 1", "setting": "atATC-F161A [3]; ITC, F161A, site 1", "value": -85.4, "unit": "kJ/mol"},
      {"measurement": "ΔG Site 1", "setting": "atATC-F161A [3]; ITC, F161A, site 1", "value": -39.3, "unit": "kJ/mol"},
      {"measurement": "ΔH Site 1", "setting": "atATC-F161A [3]; ITC, F161A, site 1", "value": 46, "unit": "kJ/mol"},
      {"measurement": "Activity WT", "setting": "atATC WT; 0.01 mM PALA, [CP] 0.16 mM", "value": "17.11 nmol / min μg and 10.69 nmol / min μg and 14.77 nmol / min μg"},
      {"measurement": "Activity WT", "setting": "atATC WT; 0.01 mM PALA, [CP] 0.31 mM", "value": "20.84 nmol / min μg and 20.81 nmol / min μg and 18.28 nmol / min μg"},
      {"measurement": "Activity WT", "setting": "atATC WT; 0.01 mM PALA, [CP] 0.63 mM", "value": "27.62 nmol / min μg and 26.91 nmol / min μg and 26.59 nmol / min μg"},
      {"measurement": "Activity WT", "setting": "atATC WT; 0.01 mM PALA, [CP] 1.25 mM", "value": "40.50 nmol / min μg and 40.46 nmol / min μg and 40.29 nmol / min μg"},
      {"measurement": "Activity WT", "setting": "atATC WT; 0.01 mM PALA, [CP] 2.50 mM", "value": "50.62 nmol / min μg and 53.39 nmol / min μg and 49.84 nmol / min μg"},
      {"measurement": "Activity WT", "setting": "atATC WT; 0.01 mM PALA, [CP] 5.00 mM", "value": "66.15 nmol / min μg and 65.77 nmol / min μg and 55.96 nmol / min μg"},
      {"measurement": "Activity WT", "setting": "atATC WT; 0.1 mM PALA, [CP] 0.31 mM", "value": "4.77 nmol / min μg and 4.92 nmol / min μg and 5.38 nmol / min μg"},
      {"measurement": "Activity WT", "setting": "atATC WT; 0.1 mM PALA, [CP] 0.63 mM", "value": "10.55 nmol / min μg and 10.43 nmol / min μg and 10.56 nmol / min μg"},
      {"measurement": "Activity WT", "setting": "atATC WT; 0.1 mM PALA, [CP] 1.25 mM", "value": "19.60 nmol / min μg and 18.57 nmol / min μg and 27.14 nmol / min μg"},
      {"measurement": "Activity WT", "setting": "atATC WT; 0.1 mM PALA, [CP] 2.50 mM", "value": "27.12 nmol / min μg and 29.01 nmol / min μg and 31.29 nmol / min μg"},
      {"measurement": "Activity WT", "setting": "atATC WT; 0.1 mM PALA, [CP] 5.00 mM", "value": "33.74 nmol / min μg and 33.21 nmol / min μg"},
      {"measurement": "fresh weight compared to untreated seedlings", "setting": "Arabidopsis seedlings; 0.2 mM PALA", "value": 59, "unit": "%"},
      {"measurement": "root length relative to untreated seedlings", "setting": "Arabidopsis seedlings; 0.2 mM PALA", "value": 36, "unit": "%"},
      {"measurement": "root length, average", "setting": "Arabidopsis seedlings; 0.2 mM PALA", "value": "0.96 ± 0.22 cm and 0.962 cm"},
      {"measurement": "Freshweight, single replicates (10 seedlings)", "setting": "Arabidopsis seedlings; 0.2 mM PALA", "value": "0.1006 g and 0.0950 g and 0.1032 g"},
      {"measurement": "Freshweight, average (10 seedlings)", "setting": "Arabidopsis seedlings; 0.2 mM PALA", "value": 0.0996, "unit": "g"},
      {"measurement": "fresh weight compared to untreated seedlings", "setting": "Arabidopsis seedlings; 0.4 mM PALA", "value": 23, "unit": "%"},
      {"measurement": "root length relative to untreated seedlings", "setting": "Arabidopsis seedlings; 0.4 mM PALA", "value": 8, "unit": "%"},
      {"measurement": "root length, average", "setting": "Arabidopsis seedlings; 0.4 mM PALA", "value": "0.21 ± 0.09 cm and 0.213 cm"},
      {"measurement": "Freshweight, single replicates (10 seedlings)", "setting": "Arabidopsis seedlings; 0.4 mM PALA", "value": "0.0435 g and 0.0329 g and 0.0417 g"},
      {"measurement": "Freshweight, average (10 seedlings)", "setting": "Arabidopsis seedlings; 0.4 mM PALA", "value": 0.0394, "unit": "g"},
      {"measurement": "chlorosis of seedlings", "setting": "Arabidopsis seedlings; PALA-treated seedlings", "value": "Chlorosis was also apparent"}
    ]},
    {"smiles": "O=c1ccn([C@@H]2O[C@H](COP(=O)(O)OP(=O)(O)O)[C@@H](O)[C@H]2O)c(=O)[nH]1", "note": "[UDP]", "values": [
      {"measurement": "inhibition of plant ATCs", "setting": "plant ATCs", "value": "not inhibitors"}
    ]},
    {"smiles": "O=c1ccn([C@@H]2O[C@H](COP(=O)(O)OP(=O)(O)OP(=O)(O)O)[C@@H](O)[C@H]2O)c(=O)[nH]1", "note": "[UTP]", "values": [
      {"measurement": "inhibition of plant ATCs", "setting": "plant ATCs", "value": "not inhibitors"}
    ]}
  ]
}
